Measurements as given in the NIST ThermoML archive (doi:10.1016/j.jct.2018.08.013).
“And” between values parts separate entries of the source, which are not always exact repeats. Equal entries are not always repeated.

Assays:
[1] = xn = mol fraction of the nth substance listed; conditions: 298 K; 100 kPa; Crystal of intercomponent compound 1; X-ray diffraction; x2 = 0.542
[2] = specific heat capacity at constant pressure; xn = mol fraction of the nth substance listed; conditions: 100 kPa, Crystal of intercomponent compound 1, x2 = 0.542

[Te] [tellurium] + [In]
Conditions | mass density [kg/m3]
[1] | 6307

[2]
Conditions | specific heat capacity
10.11 K, relaxation calorimetry | 13.3 J/K/kg and 13.26 J/K/kg
10.12 K, relaxation calorimetry | 13.3 J/K/kg
12.12 K, relaxation calorimetry | 20.6 J/K/kg and 20.59 J/K/kg
12.13 K, relaxation calorimetry | 20.65 J/K/kg
14.14 K, relaxation calorimetry | 28.68 J/K/kg and 28.67 J/K/kg and 28.69 J/K/kg
16.15 K, relaxation calorimetry | 36.99 J/K/kg
16.16 K, relaxation calorimetry | 36.96 J/K/kg and 37.07 J/K/kg
18.17 K, relaxation calorimetry | 45.25 J/K/kg
18.18 K, relaxation calorimetry | 45.21 J/K/kg
20.18 K, relaxation calorimetry | 53.21 J/K/kg
20.19 K, relaxation calorimetry | 53.01 J/K/kg and 53.25 J/K/kg
22.2 K, relaxation calorimetry | 60.8 J/K/kg and 61.01 J/K/kg and 60.84 J/K/kg
24.22 K, relaxation calorimetry | 68.02 J/K/kg and 68.1 J/K/kg
26.23 K, relaxation calorimetry | 74.95 J/K/kg
26.24 K, relaxation calorimetry | 74.91 J/K/kg and 74.95 J/K/kg
28.25 K, relaxation calorimetry | 81.26 J/K/kg and 81.31 J/K/kg
30.27 K, relaxation calorimetry | 87.16 J/K/kg
35.3 K, relaxation calorimetry | 101.02 J/K/kg
35.31 K, relaxation calorimetry | 100.94 J/K/kg and 100.9 J/K/kg
40.34 K, relaxation calorimetry | 112.78 J/K/kg and 112.99 J/K/kg
40.35 K, relaxation calorimetry | 112.74 J/K/kg
45.38 K, relaxation calorimetry | 122.93 J/K/kg and 123.09 J/K/kg
45.39 K, relaxation calorimetry | 122.76 J/K/kg
50.41 K, relaxation calorimetry | 132.54 J/K/kg
50.42 K, relaxation calorimetry | 132.13 J/K/kg
50.43 K, relaxation calorimetry | 132.04 J/K/kg
55.43 K, relaxation calorimetry | 140.42 J/K/kg
55.45 K, relaxation calorimetry | 139.92 J/K/kg
55.47 K, relaxation calorimetry | 139.72 J/K/kg
60.47 K, relaxation calorimetry | 146.93 J/K/kg
60.49 K, relaxation calorimetry | 146.4 J/K/kg
60.51 K, relaxation calorimetry | 146.44 J/K/kg
65.49 K, relaxation calorimetry | 153.78 J/K/kg
65.53 K, relaxation calorimetry | 152.79 J/K/kg
65.56 K, relaxation calorimetry | 152.5 J/K/kg
70.51 K, relaxation calorimetry | 159.39 J/K/kg
70.57 K, relaxation calorimetry | 158.16 J/K/kg
70.61 K, relaxation calorimetry | 157.78 J/K/kg
75.55 K, relaxation calorimetry | 164.01 J/K/kg
75.61 K, relaxation calorimetry | 162.86 J/K/kg
75.65 K, relaxation calorimetry | 162.69 J/K/kg
80.58 K, relaxation calorimetry | 169.46 J/K/kg
80.64 K, relaxation calorimetry | 167.77 J/K/kg
80.7 K, relaxation calorimetry | 167.02 J/K/kg
85.6 K, relaxation calorimetry | 173.13 J/K/kg
85.68 K, relaxation calorimetry | 172.14 J/K/kg
85.74 K, relaxation calorimetry | 170.65 J/K/kg
90.65 K, relaxation calorimetry | 176.64 J/K/kg
90.72 K, relaxation calorimetry | 175.44 J/K/kg
90.77 K, relaxation calorimetry | 175.19 J/K/kg
95.67 K, relaxation calorimetry | 179.52 J/K/kg
95.75 K, relaxation calorimetry | 178.16 J/K/kg
95.8 K, relaxation calorimetry | 177.96 J/K/kg
100.78 K, relaxation calorimetry | 180.43 J/K/kg
100.82 K, relaxation calorimetry | 179.89 J/K/kg
100.89 K, relaxation calorimetry | 181.75 J/K/kg
106.78 K, relaxation calorimetry | 184.18 J/K/kg
106.86 K, relaxation calorimetry | 182.66 J/K/kg
106.88 K, relaxation calorimetry | 182.86 J/K/kg
113.77 K, relaxation calorimetry | 186.45 J/K/kg
113.82 K, relaxation calorimetry | 185.55 J/K/kg
113.85 K, relaxation calorimetry | 185.13 J/K/kg
120.77 K, relaxation calorimetry | 188.39 J/K/kg
120.8 K, relaxation calorimetry | 188.64 J/K/kg
120.84 K, relaxation calorimetry | 187.28 J/K/kg
127.76 K, relaxation calorimetry | 189.79 J/K/kg
127.78 K, relaxation calorimetry | 190.45 J/K/kg
127.81 K, relaxation calorimetry | 189.51 J/K/kg
134.73 K, relaxation calorimetry | 191.98 J/K/kg
134.75 K, relaxation calorimetry | 191.11 J/K/kg
134.77 K, relaxation calorimetry | 191.32 J/K/kg
141.7 K, relaxation calorimetry | 193.51 J/K/kg
141.73 K, relaxation calorimetry | 192.35 J/K/kg
141.74 K, relaxation calorimetry | 193.09 J/K/kg
148.67 K, relaxation calorimetry | 194.87 J/K/kg
148.71 K, relaxation calorimetry | 194.62 J/K/kg and 193.75 J/K/kg
155.61 K, relaxation calorimetry | 195.65 J/K/kg
155.64 K, relaxation calorimetry | 195.94 J/K/kg and 195.82 J/K/kg
162.58 K, relaxation calorimetry | 197.26 J/K/kg
162.62 K, relaxation calorimetry | 197.38 J/K/kg
169.55 K, relaxation calorimetry | 198.54 J/K/kg
169.58 K, relaxation calorimetry | 198.37 J/K/kg
169.59 K, relaxation calorimetry | 198.42 J/K/kg
176.53 K, relaxation calorimetry | 198.87 J/K/kg
176.56 K, relaxation calorimetry | 198.83 J/K/kg
176.57 K, relaxation calorimetry | 198.87 J/K/kg
183.5 K, relaxation calorimetry | 199.69 J/K/kg
183.54 K, relaxation calorimetry | 199.69 J/K/kg
190.47 K, relaxation calorimetry | 200.4 J/K/kg
190.51 K, relaxation calorimetry | 200.44 J/K/kg and 200.48 J/K/kg
197.43 K, relaxation calorimetry | 200.56 J/K/kg
197.47 K, relaxation calorimetry | 200.68 J/K/kg and 200.77 J/K/kg
204.39 K, relaxation calorimetry | 201.18 J/K/kg
204.43 K, relaxation calorimetry | 201.3 J/K/kg
204.44 K, relaxation calorimetry | 201.34 J/K/kg
211.34 K, relaxation calorimetry | 201.67 J/K/kg
211.38 K, relaxation calorimetry | 201.76 J/K/kg
211.39 K, relaxation calorimetry | 201.59 J/K/kg
218.29 K, relaxation calorimetry | 201.76 J/K/kg
218.34 K, relaxation calorimetry | 201.92 J/K/kg
225.27 K, relaxation calorimetry | 202.09 J/K/kg
225.31 K, relaxation calorimetry | 202.29 J/K/kg and 202.17 J/K/kg
226.53 K, relaxation calorimetry | 200.85 J/K/kg
226.54 K, relaxation calorimetry | 201.01 J/K/kg
231.55 K, relaxation calorimetry | 201.3 J/K/kg
231.56 K, relaxation calorimetry | 201.22 J/K/kg
232.22 K, relaxation calorimetry | 202.38 J/K/kg
232.27 K, relaxation calorimetry | 202.33 J/K/kg
232.28 K, relaxation calorimetry | 202.29 J/K/kg
236.56 K, relaxation calorimetry | 201.39 J/K/kg
236.57 K, relaxation calorimetry | 201.47 J/K/kg
239.17 K, relaxation calorimetry | 202 J/K/kg
239.24 K, relaxation calorimetry | 202.09 J/K/kg and 202.05 J/K/kg
241.58 K, relaxation calorimetry | 201.67 J/K/kg
241.6 K, relaxation calorimetry | 201.26 J/K/kg
246.14 K, relaxation calorimetry | 201.88 J/K/kg
246.19 K, relaxation calorimetry | 202.09 J/K/kg and 202.05 J/K/kg
246.51 K, relaxation calorimetry | 201.51 J/K/kg
246.52 K, relaxation calorimetry | 201.92 J/K/kg
251.63 K, relaxation calorimetry | 202.09 J/K/kg
251.64 K, relaxation calorimetry | 202 J/K/kg
253.09 K, relaxation calorimetry | 202.17 J/K/kg
253.15 K, relaxation calorimetry | 202.13 J/K/kg and 202.17 J/K/kg
256.55 K, relaxation calorimetry | 202.29 J/K/kg
256.56 K, relaxation calorimetry | 202.17 J/K/kg
260.04 K, relaxation calorimetry | 202.25 J/K/kg
260.1 K, relaxation calorimetry | 202.25 J/K/kg and 202.29 J/K/kg
261.55 K, relaxation calorimetry | 202.25 J/K/kg
261.57 K, relaxation calorimetry | 202.13 J/K/kg
266.18 K, Extra sensitive DSC | 203.98 J/K/kg
270 K, Extra sensitive DSC | 203.98 J/K/kg
275 K, Extra sensitive DSC | 204.48 J/K/kg
280 K, Extra sensitive DSC | 204.89 J/K/kg
285 K, Extra sensitive DSC | 205.18 J/K/kg
290 K, Extra sensitive DSC | 205.59 J/K/kg
295 K, Extra sensitive DSC | 206.09 J/K/kg
300 K, Extra sensitive DSC | 206.5 J/K/kg
305 K, Extra sensitive DSC | 207.08 J/K/kg
310 K, Extra sensitive DSC | 207.28 J/K/kg
315 K, Extra sensitive DSC | 207.28 J/K/kg
320 K, Extra sensitive DSC | 207.28 J/K/kg
325 K, Extra sensitive DSC | 207.49 J/K/kg
328.56 K, Extra sensitive DSC | 207.7 J/K/kg
332.56 K, Extra sensitive DSC | 209.1 J/K/kg
335.17 K, Extra sensitive DSC | 209.43 J/K/kg
336.9 K, Extra sensitive DSC | 209.39 J/K/kg
339.51 K, Extra sensitive DSC | 209.35 J/K/kg
342.11 K, Extra sensitive DSC | 209.39 J/K/kg
344.71 K, Extra sensitive DSC | 209.18 J/K/kg
347.32 K, Extra sensitive DSC | 209.02 J/K/kg
349.92 K, Extra sensitive DSC | 208.77 J/K/kg
352.53 K, Extra sensitive DSC | 208.4 J/K/kg
355.13 K, Extra sensitive DSC | 208.48 J/K/kg
357.73 K, Extra sensitive DSC | 208.27 J/K/kg
358.6 K, Extra sensitive DSC | 208.15 J/K/kg
